Data taken from ChEMBL document CHEMBL1817550, “Synthesis and biological evaluation of some novel cyclic-imides as hypoglycaemic, anti-hyperlipidemic agents” (Eur J Med Chem, 2011).
Calls of active or inactive are those of the source. The calls are words filed in the database; no cut-off is given here.

What was measured:
Rattus norvegicus [1] = test: Antihyperlipidemic activity in streptozotocin-induced diabetic rat model assessed as serum cholesterol level at 10 mg/kg/day, po dosed via gavage for 14 days administered 3 days after streptozotocin challenge by UV-spectrophotometry; assay type: functional
Rattus norvegicus [2] = test: Antihyperlipidemic activity in high-cholesterol diet-induced hypercholesterolemia Swiss albino rat model assessed as reduction in serum cholesterol level at 10 mg/kg/day, po administered via gavage simultaneously with diet cocktail for 14 days by UV-spectrophotometry relative to untreated control; assay type: functional; details: 336 h
Rattus norvegicus [3] = test: Antihyperlipidemic activity in streptozotocin-induced diabetic rat model assessed as serum triglyceride level at 10 mg/kg/day, po dosed via gavage for 14 days administered 3 days after streptozotocin challenge by UV-spectrophotometry; assay type: functional
Rattus norvegicus [4] = test: Hypoglycemic activity in streptozotocin-induced diabetic rat model assessed as decrease in serum glucose level at 10 mg/kg/day, po dosed via gavage for 14 days administered 3 days after streptozotocin challenge by UV-spectrophotometry; assay type: functional
Rattus norvegicus [5] = test: Antihyperlipidemic activity in high-cholesterol diet-induced hypercholesterolemia Swiss albino rat model assessed as reduction in serum cholesterol level at 160 mg/kg/day, po administered via gavage simultaneously with diet cocktail for 14 days by UV-spectrophotometry relative to untreated control; assay type: functional, organism-based
[6] = Toxicity in intra-gastrically dosed healthy rat administered as single dose; assay type: organism-based; details: in vivo, po
Rattus norvegicus [7] = test: Toxicity in healthy rat assessed as incidence of mortality at 2000 to 7000 mg/kg, po measured after 24 hrs; assay type: organism-based; set-up: dose 2000-7000 mg/kg, route oral; details: in vivo
Rattus norvegicus [8] = test: Toxicity in healthy rat at 2000 to 7000 mg/kg, po measured after 24 hrs; assay type: organism-based; set-up: dose 2000-7000 mg/kg, route oral; details: in vivo
Rattus norvegicus [9] = test: Toxicity in healthy rat assessed as incidence of less responsive state at 2000 to 7000 mg/kg, po measured after 2 to 6 hrs; assay type: organism-based; set-up: route oral; details: in vivo

Row | SMILES | Activity (Rattus norvegicus [1]) [mg/dL] | inhibition in vivo at 10 mg/kg/day (Rattus norvegicus [2]) [%] | Activity (Rattus norvegicus [3]) [mg/dL] | inhibition in vivo at 10 mg/kg/day (Rattus norvegicus [4]) [%] | Activity (Rattus norvegicus [5]) | LD50 [6] [mg/kg] | Activity (Rattus norvegicus [7]) | Activity (Rattus norvegicus [8]) | Activity (Rattus norvegicus [9])
1 | O=C1[C@@H]2[C@H](C(=O)N1c1ccncc1)C1(Cl)C(Cl)=C(Cl)C2(Cl)C1(Cl)Cl | 169.3 | 41 | 77 | 27 | – | – | – | – | –
2 | O=C1[C@@H]2[C@H](C(=O)N1CCc1ccccn1)C1(Cl)C(Cl)=C(Cl)C2(Cl)C1(Cl)Cl | 89.75 | 53 | 71 | 7 | – | – | – | – | –
3 | O=C1c2c(Br)c(Br)c(Br)c(Br)c2C(=O)N1CCN1CCOCC1 | 161.3 | 7 | 80 | 20 | – | – | – | – | –
4 | O=C1c2c(Br)c(Br)c(Br)c(Br)c2C(=O)N1c1ccncc1 | 171 | 13 | 120 | – | – | – | – | – | –
5 | O=C1c2cc(Cl)c(Cl)cc2C(=O)N1CCN1CCOCC1 | 88.66 | 42 | 97.66 | 30 | – | – | – | – | –
6 | O=C1c2c(Br)c(Br)c(Br)c(Br)c2C(=O)N1c1ncccn1 | 196 | 19 | 110.6 | 28 | – | – | – | – | –
7 | O=C1c2c(Br)c(Br)c(Br)c(Br)c2C(=O)N1Cc1ccccn1 | 92.33 | 54 | 82.66 | 35 | Active | 5010 | Non-toxic | Non-toxic | Toxic
8 | O=C1c2cc(Cl)c(Cl)cc2C(=O)N1c1ccncc1 | 146 | 19 | 112 | – | – | – | – | – | –
9 | O=C1[C@@H]2[C@H](C(=O)N1c1ncccn1)C1(Cl)C(Cl)=C(Cl)C2(Cl)C1(Cl)Cl | 162.3 | 44 | 89.33 | – | – | – | – | – | –
10 | O=C1c2c(Cl)c(Cl)c(Cl)c(Cl)c2C(=O)N1c1ccncc1 | 129.5 | 44 | 110.6 | 3 | – | – | – | – | –
11 | O=C1c2cc(Cl)c(Cl)cc2C(=O)N1c1ncccn1 | 96 | 58 | 70.66 | 32 | Active | 4240 | Non-toxic | Non-toxic | Toxic
12 | O=C1c2c(Br)c(Br)c(Br)c(Br)c2C(=O)N1c1ccccn1 | 150.3 | 21 | 100.3 | – | – | – | – | – | –
13 | O=C1[C@@H]2[C@H](C(=O)N1c1ccccn1)C1(Cl)C(Cl)=C(Cl)C2(Cl)C1(Cl)Cl | 129.6 | 33 | 94.33 | 25 | – | – | – | – | –
14 | COc1ccc(Cl)cc1C(=O)NCCc1ccc(S(=O)(=O)NC(=O)NC2CCCCC2)cc1 [GLYBURIDE] | 102.6 | 11 | 87.6 | 52 | – | – | – | – | –
15 | O=C1c2c(Cl)c(Cl)c(Cl)c(Cl)c2C(=O)N1CCc1ccccn1 | 107.2 | 48 | 80 | – | – | – | – | – | –
16 | O=C1c2c(Cl)c(Cl)c(Cl)c(Cl)c2C(=O)N1Cc1ccccn1 | 105 | 47 | 82.66 | 23 | – | – | – | – | –
17 | O=C1c2cc(Cl)c(Cl)cc2C(=O)N1c1ccccn1 | 126.2 | 17 | 90.5 | 3 | – | – | – | – | –
18 | O=C1c2c(Cl)c(Cl)c(Cl)c(Cl)c2C(=O)N1c1ccccn1 | 140.3 | 9 | 120 | – | – | – | – | – | –
19 | O=C1c2c(Cl)c(Cl)c(Cl)c(Cl)c2C(=O)N1c1ncccn1 | 117 | 3 | 123 | 5 | – | – | – | – | –
20 | O=C1c2cc(Cl)c(Cl)cc2C(=O)N1Cc1ccccn1 | 155.3 | 11 | 93 | – | – | – | – | – | –
21 | O=C1[C@@H]2[C@H](C(=O)N1CCN1CCOCC1)C1(Cl)C(Cl)=C(Cl)C2(Cl)C1(Cl)Cl | 152.3 | 7 | 91.33 | – | – | – | – | – | –
22 | O=C1c2c(Br)c(Br)c(Br)c(Br)c2C(=O)N1CCc1ccccn1 | 164.6 | 20 | 91.33 | 18 | – | – | – | – | –
23 | O=C1c2cc(Cl)c(Cl)cc2C(=O)N1CCc1ccccn1 | 92.33 | 56 | 71.6 | 55 | Active | 5260 | Non-toxic | Non-toxic | Toxic
24 | O=C1c2c(Cl)c(Cl)c(Cl)c(Cl)c2C(=O)N1CCN1CCOCC1 | 105.7 | 46 | 100.3 | 10 | – | – | – | – | –
25 | O=C1[C@@H]2[C@H](C(=O)N1Cc1ccccn1)C1(Cl)C(Cl)=C(Cl)C2(Cl)C1(Cl)Cl | 149.3 | 4 | 123 | – | – | – | – | – | –
